Results from article PMC10252614 (International Journal of Molecular Sciences, 2023).

Columns and labels:
[1] = system: differentiated SH-SY5Y cells; assay: MTT viability of differentiated SH-SY5Y; format: cell-based, human; settings: concentration equal to IC50 from undifferentiated model, 24 h
Experimental: Then, the differentiated SH-SY5Y cells were treated with concentrations corresponding to the IC50 values obtained from the cytotoxicity measurement using undifferentiated SH-SY5Y cells. Cells were exposed to a tested compound for 24 h. Then, the medium was replaced by a medium containing 10 μM of MTT and cells were allowed to produce formazan for another, approximately 3 h under surveillance. Thereafter, the medium was aspirated and purple crystals of MTT formazan were dissolved in 100 μL DMSO under shaking. Cell viability was assessed spectrophotometrically by the amount of formazan produced. Absorbance was measured at 570 nm with 650 nm reference wavelength on Spark (Tecan Group Ltd., Männedorf, Switzerland). The IC50 value was then calculated from the control-subtracted triplicates using non-linear regression (four parameters) of GraphPad Prism 9 software. Final IC50 and SEM values were obtained as a mean of three.

SH-SY5Y cells = assay: dehydrogenase activity, WST-1 test; format: cell-based, human; settings: 100 µM, mean ± SD
Experimental: Next, we tested the effects of the compounds on intracellular dehydrogenase activity and glutathione levels. […] To evaluate the effects of the compounds on cells, we measured total intracellular dehydrogenase activity as a marker of cellular viability and glutathione levels for evaluation of oxidative stress (Table 6).
Dehydrogenase activity was evaluated by WST-1 test (Roche, Munich, Germany). The WST-1 test measures the activity of intra- and extra-mitochondrial dehydrogenases. […] The change of absorbance was measured by spectrophotometer at the wavelength of 440 nm using SPARK microplate reader (Tecan, Austria) while incubated at 37 °C. The dehydrogenase activity was expressed as the percentage of total cellular dehydrogenase activity relative to that in the control cells (control = 100%).

[2] = PAMPA prediction of BBB permeability; format: in vitro ADME
Experimental: The assay validation was performed using standard compounds whose CNS status is experimentally known from in vivo conditions.
PAMPA (the parallel artificial membrane-permeability assay) is a high-throughput screening tool applicable for prediction of the passive transport of potential drugs across the blood–brain barrier (BBB). In this study, it was used as a non-cell-based in vitro assay carried out in a coated 96-well membrane filter. The filter membrane of the donor plate was coated with PBL (Polar Brain Lipid, Avanti, USA) in dodecane (4 µL of 20 mg/mL PBL in dodecane) and the acceptor well was filled with 300 µL of PBS (pH 7.4; VA). The tested compounds were dissolved first in DMSO and subsequently diluted with PBS (pH 7.4) to final concentrations of 50–100 μM in the donor wells. […] About 300 µL of the donor solution was added to the donor wells (VD) and the donor filter plate was carefully put on the acceptor plate so that the coated membrane was “in touch” with both the donor solution and acceptor buffer. In principle, the test compound diffused from the donor well through the lipid membrane (Area = 0.28 cm^2) to the acceptor well. The concentration of the drug in both the donor and acceptor wells were assessed after 3, 4, 5, and 6 h of incubation in quadruplicate using the UV plate reader Spark (Tecan Group Ltd., Männedorf, Switzerland) at the maximum absorption wavelength of each compound. In addition, the solution of the theoretical compound concentration, simulating the equilibrium state established if the membrane were ideally permeable, was prepared and assessed as well.

GluN1/GluN2B receptor = target: T1, GluN1/GluN2B receptor (Homo sapiens, UniProt Q05586+Q13224); assay: whole-cell patch-clamp on HEK293 cells expressing GluN1/GluN2B NMDAR; format: cell-based; settings: HEK293, 10 µM, −60 mV, ± SEM (n = 5–6), 100% = full inhibition; read-out: Relative inhibition (RI) of GluN1/GluN2B NMDAR
T1 construct: expressed in transfected cells; host or cells: HEK293
T1 sequence (Q13224 27-1484, other chains not shown): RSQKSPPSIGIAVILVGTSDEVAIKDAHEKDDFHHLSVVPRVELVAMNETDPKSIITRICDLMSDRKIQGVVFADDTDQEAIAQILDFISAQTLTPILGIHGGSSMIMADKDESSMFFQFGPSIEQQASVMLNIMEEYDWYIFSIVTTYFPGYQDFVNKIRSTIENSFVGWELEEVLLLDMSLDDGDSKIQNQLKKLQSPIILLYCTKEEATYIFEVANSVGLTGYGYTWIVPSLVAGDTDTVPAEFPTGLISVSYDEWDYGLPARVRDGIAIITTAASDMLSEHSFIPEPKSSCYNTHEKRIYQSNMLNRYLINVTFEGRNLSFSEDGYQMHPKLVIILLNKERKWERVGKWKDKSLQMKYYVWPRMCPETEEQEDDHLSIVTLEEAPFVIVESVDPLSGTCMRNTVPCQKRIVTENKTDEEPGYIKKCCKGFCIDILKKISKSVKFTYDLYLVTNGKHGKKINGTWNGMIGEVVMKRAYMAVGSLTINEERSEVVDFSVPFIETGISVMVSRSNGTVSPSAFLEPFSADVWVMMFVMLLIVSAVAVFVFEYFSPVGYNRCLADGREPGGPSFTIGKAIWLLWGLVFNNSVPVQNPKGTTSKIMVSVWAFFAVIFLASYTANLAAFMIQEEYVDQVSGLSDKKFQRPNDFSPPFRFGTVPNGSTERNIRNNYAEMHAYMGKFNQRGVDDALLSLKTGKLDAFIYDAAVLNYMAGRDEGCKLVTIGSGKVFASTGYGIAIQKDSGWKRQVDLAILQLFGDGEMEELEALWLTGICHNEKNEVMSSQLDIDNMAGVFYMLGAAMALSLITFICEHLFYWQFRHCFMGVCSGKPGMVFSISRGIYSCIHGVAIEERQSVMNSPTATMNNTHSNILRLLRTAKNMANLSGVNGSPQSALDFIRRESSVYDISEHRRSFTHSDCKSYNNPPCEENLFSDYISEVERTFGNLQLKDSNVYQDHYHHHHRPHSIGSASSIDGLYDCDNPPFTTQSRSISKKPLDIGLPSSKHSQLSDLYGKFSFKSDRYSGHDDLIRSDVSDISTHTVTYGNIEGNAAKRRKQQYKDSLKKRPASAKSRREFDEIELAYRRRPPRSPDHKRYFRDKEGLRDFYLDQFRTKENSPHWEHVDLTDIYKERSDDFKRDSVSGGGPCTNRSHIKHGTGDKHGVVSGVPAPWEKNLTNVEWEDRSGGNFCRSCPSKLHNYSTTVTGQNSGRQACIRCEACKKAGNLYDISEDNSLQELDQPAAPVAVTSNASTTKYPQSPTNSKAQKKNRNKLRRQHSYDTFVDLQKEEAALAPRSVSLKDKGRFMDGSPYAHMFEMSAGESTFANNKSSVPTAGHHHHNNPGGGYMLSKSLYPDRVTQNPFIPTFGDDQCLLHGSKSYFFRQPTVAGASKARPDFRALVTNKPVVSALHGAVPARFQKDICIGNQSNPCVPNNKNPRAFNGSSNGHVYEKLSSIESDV
Experimental: We tested the derivatives by the whole-cell patch-clamp method at a concentration of 10 μM under steady-state conditions in the presence of the saturating concentrations of NMDAR (co-)agonists (L-glutamate and glycine). […] Whole-cell patch-clamp recordings were performed using an Axopatch 200B amplifier (Molecular Devices, LLC., San Jose, CA, USA) at a holding membrane potential of −60 mV. HEK293 cells were co-transfected with DNA vectors encoding human versions of the GluN1-4a (GluN1) and GluN2B subunits and green fluorescent protein (GFP) in a 1:1:1 ratio using 0.9 μL PolyMag reagent (OZ Biosciences SAS, Marseille, France) in 50 μL Opti-MEM I [56, 57]. After 15 min on a magnetic plate, HEK293 cells were trypsinized and resuspended in Opti-MEM I medium containing 1% FBS, 2 mM MgCl2 and 3 mM kynurenic acid (to reduce cell death caused by activation of NMDARs). Electrophysiological measurements were performed 24–48 h after completion of transfection at room temperature. The extracellular recording solution (ECS) contained (in mM): 160 NaCl, 2.5 KCl, 10 HEPES, 10 D-glucose, 0.2 EDTA, and 0.7 CaCl2 (pH 7.3 with NaOH). […] A microprocessor-controlled rapid perfusion system with a time constant for solution exchange around the recorded cell of ~20 ms was used. Currents were low-pass filtered at 2 kHz using an eight-pole Bessel filter, digitized at 5 kHz, and recorded using the pCLAMP 10 program (Molecular Devices, LLC., San Jose, CA, USA). The co-agonist glycine (100 µM) was applied throughout the recording, and the agonist L-glutamate (1 mM) was used to elicit responses of GluN1/GluN2B receptors.

human AChE (hAChE) = target: T2, human AChE (hAChE) (Homo sapiens, UniProt P22303); assay: hAChE inhibition, modified Ellman's method; format: biochemical; settings: read-out: % of AChE inhibition
T2 construct: made in house
T2 sequence (P22303 32-614): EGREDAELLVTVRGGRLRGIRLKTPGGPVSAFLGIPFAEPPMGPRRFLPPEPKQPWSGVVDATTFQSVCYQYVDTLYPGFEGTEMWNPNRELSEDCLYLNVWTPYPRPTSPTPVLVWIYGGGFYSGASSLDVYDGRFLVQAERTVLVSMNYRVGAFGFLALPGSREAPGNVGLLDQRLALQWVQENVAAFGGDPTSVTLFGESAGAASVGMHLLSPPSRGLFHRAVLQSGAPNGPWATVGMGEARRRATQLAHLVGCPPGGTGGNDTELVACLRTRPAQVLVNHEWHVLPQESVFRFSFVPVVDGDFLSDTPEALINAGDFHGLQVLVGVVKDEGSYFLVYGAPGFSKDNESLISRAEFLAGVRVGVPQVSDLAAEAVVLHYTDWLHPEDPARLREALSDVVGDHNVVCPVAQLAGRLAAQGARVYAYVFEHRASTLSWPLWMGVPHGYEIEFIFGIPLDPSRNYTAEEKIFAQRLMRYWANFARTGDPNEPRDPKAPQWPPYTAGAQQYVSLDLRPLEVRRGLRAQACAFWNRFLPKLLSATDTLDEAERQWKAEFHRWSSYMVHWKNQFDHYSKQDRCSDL
Experimental: (§1) N-Methylpropargylamine-quinazolines were tested for their inhibitory potency against human AChE (hAChE) and human BChE (hBChE) enzymes using the modified spectrophotometric method of Ellman et al..
(§2) The human recombinant BChE and AChE were prepared at the Department of Toxicology and Military Pharmacy (Faculty of Military Health Sciences, Hradec Kralove, Czech Republic). 5,5′-dithiobis(2-nitrobenzoic acid) (Ellman’s reagent, DTNB), phosphate buffer (PB, pH 7.4), acetylthiocholine (ATC) and butyrylthiocholine (BTC), were purchased from Sigma-Aldrich, Prague, Czech Republic. For measuring purposes, polystyrene Nunc 96-well microplates with a flat-bottom shape (ThermoFisher Scientific, Waltham, MA, USA) were utilized. All the assays were carried out in 0.1 M KH2PO4/K2HPO4 buffer, pH 7.4. Enzyme solutions were prepared at 2.0 units/mL in 2 mL aliquots. The assay medium consisted of a 0.1 M phosphate buffer (pH 7.4), 0.01 M DTNB, the enzyme, and 0.01 M substrate (ATC/BTC iodide solution). Concentration 1 µM was tested and the % of inhibition was calculated. Tested compounds were pre-incubated for 5 min. The reaction was started by immediate addition of 20 μL of the substrate. […] Each concentration was assayed in triplicate. Software GraphPad Prism 5 (San Diego, CA, USA) was used for the statistical data evaluation.

in vitro = settings: human, undifferentiated SH-SY5Y cells
hMAO-B = target: T3, hMAO-B (Homo sapiens, UniProt P27338); assay: in vitro inhibition of hMAO-B, kynuramine fluorescence assay; format: biochemical
T3 construct: purchased Merck (Prague, Czech Republic)
T3 sequence (P27338 1-520): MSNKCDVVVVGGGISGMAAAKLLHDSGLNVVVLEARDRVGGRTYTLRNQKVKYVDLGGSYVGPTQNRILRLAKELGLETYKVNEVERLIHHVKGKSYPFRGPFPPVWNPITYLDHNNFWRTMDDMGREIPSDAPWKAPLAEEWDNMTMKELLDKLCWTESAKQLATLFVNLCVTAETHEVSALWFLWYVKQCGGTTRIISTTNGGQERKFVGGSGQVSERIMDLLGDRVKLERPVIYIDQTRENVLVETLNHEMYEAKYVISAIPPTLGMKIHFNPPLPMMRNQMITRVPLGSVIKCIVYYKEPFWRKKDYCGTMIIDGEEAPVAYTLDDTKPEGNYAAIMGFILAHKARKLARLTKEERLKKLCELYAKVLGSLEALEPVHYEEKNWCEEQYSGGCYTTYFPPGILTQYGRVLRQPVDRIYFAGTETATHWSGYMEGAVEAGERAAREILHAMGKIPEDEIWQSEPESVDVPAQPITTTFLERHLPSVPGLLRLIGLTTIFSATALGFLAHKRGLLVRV
Experimental: The hMAO-A and hMAO-B enzymes were purchased from Merck (Prague, Czech Republic). […] The mixture was pre-incubated at 37 °C for 15 min and subsequently substrate kynuramine was added to the final concentration of 100 µM. The final volume of reaction mixture was 0.1 mL. The whole reaction mixture was incubated at 37 °C for 30 min. The reaction was stopped by the addition of 20 µL 4M NaOH.

human BChE (hBChE) = target: T4, human BChE (hBChE) (Homo sapiens, UniProt P06276); assay: hBChE inhibition, modified Ellman's method; format: biochemical; settings: 10^-6 M
T4 construct: made in house
T4 sequence (P06276 29-602): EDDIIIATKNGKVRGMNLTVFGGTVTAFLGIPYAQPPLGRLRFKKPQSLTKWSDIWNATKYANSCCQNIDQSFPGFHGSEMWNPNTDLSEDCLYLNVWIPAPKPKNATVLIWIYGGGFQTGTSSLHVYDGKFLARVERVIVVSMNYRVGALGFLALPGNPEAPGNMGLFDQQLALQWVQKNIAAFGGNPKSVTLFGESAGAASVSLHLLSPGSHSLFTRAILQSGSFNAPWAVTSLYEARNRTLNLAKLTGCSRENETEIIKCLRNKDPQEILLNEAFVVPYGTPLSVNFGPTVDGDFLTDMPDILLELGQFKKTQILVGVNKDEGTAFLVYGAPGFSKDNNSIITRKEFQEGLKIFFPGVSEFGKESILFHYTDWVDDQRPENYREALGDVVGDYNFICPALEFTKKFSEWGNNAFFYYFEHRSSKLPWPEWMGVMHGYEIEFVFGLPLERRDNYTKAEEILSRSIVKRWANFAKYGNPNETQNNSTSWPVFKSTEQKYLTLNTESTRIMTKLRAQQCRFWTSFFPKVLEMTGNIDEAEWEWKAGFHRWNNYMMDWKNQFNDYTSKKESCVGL
Experimental: as §1, §2

Question: For `C#CCN(C)c1nc(NCCCC)c2ccc(Cl)cc2n1` [II-6e, N4-butyl-7-chloro-N2-methyl-N2-(prop-2-yn-1-yl)quinazoline-2,4-diamine], which “effect on viability of differentiated SH-SY5Y (in words)” value [1] is on record?
Answer: increased toxicity

Question: And the “Dehydrogenase Activity (% of Control)” value (SH-SY5Y cells; 6 h)?
Answer: 63 ± 9 % of Control

Question: And the “Dehydrogenase Activity (% of Control)” value (SH-SY5Y cells; 24 h)?
Answer: 48 ± 9 % of Control

Question: And the “BBB penetration by PAMPA (in words)” value [2]?
Answer: did not penetrate the artificial barrier

Question: And the “CNS (+/−)” value ([2]; PAMPA class)?
Answer: CNS (−) (CNS (−) (low BBB permeation predicted): Pe (×10^−6 cm s^−1) < 2.0)

Question: And the Papp ([2]; PAMPA, PBS pH 7.4, read-out: Pe ± SEM)?
Answer: 0.9 ± 0.43 ×10⁻⁶ cm/s

Question: What about the inhibition at 10 µM (GluN1/GluN2B receptor) of the same molecule?
Answer: 33.8 ± 2.56%

Question: And the inhibition at 1 µM (human AChE (hAChE))?
Answer: 9%

Question: And the IC50 at 24 h (in vitro)?
Answer: 67.1 ± 3.81 µM

Question: What about the IC50 (hMAO-B) of the same molecule?
Answer: 3.65 ± 0.14 µM

Question: And the “selectivity profile hMAO-A vs hMAO-B (in words)” value (hMAO-B)?
Answer: hMAO-B selective inhibitors

Question: What about the inhibition at 1 µM (human BChE (hBChE)) of the same molecule?
Answer: 0%
